Laboratory results reported in PubChem BioAssay (NCI).
Several values for one entry are separate records, joined by “and”; a condition that tells them apart may be missing. Equal entries are not always repeated.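 All cell lines were grown in 96-well plates and treated with compound for 48 hours. Abbreviation: GI50, concentration required for 50% inhibition of growth. TGI: concentration producing complete growth inhibition.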 Activity calls are given as the source filed them. Rule as the data show it: active = GI50 below about 0.43 µM; inactive = the rest.

How the values were obtained:
Assay in all cases: NCI-60 cell line screen, 48 h
[1] = test system: MDA-N
[2] = test system: DLD-1 colon
[3] = test system: DMS 114 small cell lung
[4] = test system: HOP-18 NSCLC
[5] = test system: LXFL 529 NSCLC
[6] = test system: M19-MEL melanoma
[7] = test system: RXF-631 renal
[8] = test system: SNB-78 CNS
[9] = test system: XF 498 CNS

Row | SMILES | TGI [1] | TGI [3] | TGI [6] | TGI [8] | TGI [2] | TGI [4] | TGI [5] | TGI [9] | also measured
1 | CCc1ccc([OH2+])c(C(=O)[O-])c1.CCc1ccc([OH2+])c(C(=O)[O-])c1.CCc1ccc([OH2+])c(C(=O)[O-])c1.CCc1ccc([OH2+])c(C(=O)[O-])c1.[Cu+2].[Cu+2] | > 100 µM | – | – | – | – | – | – | – | GI50 [1]: > 71.1 µM
2 | COc1cc2c(cc1O)CCN[C@@]21CS[C@H]2c3c(OC(C)=O)c(C)c4c(c3C(COC1=O)N1C2C2NC(Cc3cc(C)c(OC)c(O)c32)[C@@H]1O)OCO4 (stereo partly specified) | – | 4.5 ng/mL | 4.5 ng/mL | 932 ng/mL | – | – | – | – | GI50 [2]: 0.000365 ng/mL and 4.5 ng/mL; GI50 [3]: 4.5 ng/mL; outcome [4]: inactive; outcome [5]: inactive; GI50 [6]: 4.5 ng/mL; outcome [7]: inactive; GI50 [8]: 0.00037 ng/mL and 4.5 ng/mL
3 | CO[C@H]1C[C@H](O[C@H]2CC[C@@]3(C)[C@H](CC[C@@H]4[C@@H]3CC[C@]3(C)[C@@H](C5=CC(=O)OC5)CC[C@]43O)C2)O[C@H](C)[C@H]1O | 0.114 µM | – | – | – | – | – | – | – | –
4 | NN=C1/C(=C\c2ccccc2)CCC/C1=C/c1ccccc1 | – | 75.1 µM | > 100 µM | > 100 µM | > 100 µM | > 100 µM | > 100 µM | – | –
5 | NP1(Oc2ccc(F)cc2)=NP(N)(Oc2ccc(F)cc2)=NP(Oc2ccc(F)cc2)(Oc2ccc(F)cc2)=N1 (stereo unspecified) | 19 µM | – | – | – | – | – | – | – | –
6 | O=C1c2c(c3c4ccccc4n(CC4CO4)c3c3[nH]c4ccccc4c23)C(=O)N1Cc1ccccc1 (stereo unspecified) | – | > 100 µM | > 100 µM | > 100 µM | – | – | > 100 µM | > 100 µM | TGI [7]: > 100 µM
7 | COc1ccc2c(Cl)cc(NC(=S)Nc3ccccc3)nc2c1 | 32.4 µM | – | – | – | – | – | – | – | –
8 | N/N=C1/C(=O)N(c2ccc(Cl)cc2)C(=O)C(=O)C1c1nc2ccccc2s1 (stereo unspecified) | – | > 100 µM | > 100 µM | > 100 µM | > 100 µM | > 100 µM | > 100 µM | > 100 µM | –
9 | CCOC(=O)C1=C(C)N(NC(=O)Nc2ccccc2)C2(N)N(NC(=O)Nc3ccccc3)C(C)=C(C(=O)OCC)C12C#N (stereo unspecified) | – | 32.9 µM | 31.6 µM | 37.6 µM | 34.1 µM | 34.3 µM | 32.6 µM | – | –
10 | CC1=Nc2ccccc2S/C1=C1/C=NC(=NC#N)N=C1C(=O)Nc1cccc(Cl)c1 | – | > 100 µM | > 100 µM | > 100 µM | > 100 µM | > 100 µM | > 100 µM | – | –
11 | C#Cc1c(C)c(/C=C/C(C)=C\C(=O)OC)n(C)c1C | – | > 100 µM | > 100 µM | > 100 µM | > 100 µM | > 100 µM | > 100 µM | > 100 µM | –
12 | N#Cc1c(N)oc2cc3c(C#N)c(N)oc3cc12 | – | > 100 µM | > 100 µM | – | > 100 µM | > 100 µM | > 100 µM | – | TGI [7]: > 100 µM
13 | CC1OC(O[C@@H]2C=C3CC[C@@H]4[C@H](CC[C@]5(C)[C@@H](c6ccc(=O)oc6)CC[C@]45O)[C@@]3(C)CC2)C(O)C(O)C1O (stereo partly specified) | – | – | – | 0.003 µM | 0.003 µM | – | – | – | GI50 [2]: 0.000621 µM; GI50 [6]: 0.00173 µM; GI50 [8]: 0.000596 µM
14 | CCN(CC)c1ccc(N=Nc2ccc(-c3nc4cccnc4s3)cc2)cc1 | – | > 100 µM | – | > 100 µM | > 100 µM | – | > 100 µM | 72.1 µM | –
15 | CC(C)(c1ccc(C=O)o1)c1ccc(C(C)(C)c2ccc(C=O)o2)o1 | – | – | – | > 100 µM | – | > 100 µM | > 100 µM | – | TGI [7]: > 100 µM
16 | CN(N=O)c1ccc(/C=C/c2ccnc3ccccc23)cc1 | > 100 µM | – | – | – | – | – | – | – | –
17 | COc1cc(O)c(C(=O)C2Cc3ccccc32)c(OC)c1 (stereo unspecified) | – | 97.2 µM | – | > 100 µM | > 100 µM | > 100 µM | > 100 µM | – | TGI [7]: > 100 µM
18 | Cc1nc2ccccc2c(=O)n1/N=C(\N=Nc1cc(Cl)ccc1Cl)c1ccc(N(C)C)cc1 | – | 93.6 µM | > 100 µM | – | > 100 µM | > 100 µM | > 100 µM | 8.35 µM | –
19 | COc1ccc2c(c1O)[C@@]13CCCC=C1[C@@H](C2)N(C)CC3 | > 100 µM | – | – | – | – | – | – | – | –
20 | O=C(CC1(O)C(=O)Nc2ccccc21)c1cccc(O)c1 (stereo unspecified) | – | > 100 µM | > 100 µM | > 100 µM | > 100 µM | – | > 100 µM | > 100 µM | TGI [7]: > 100 µM
21 | O=C1OC(c2ccccc2)=N/C1=C\c1ccccc1 | > 100 µM | – | – | – | – | – | – | – | –
22 | CC(=O)[CH-]C(=O)c1ccccc1.CC(=O)[CH-]C(=O)c1ccccc1.Cl.[O-]CCc1ccccn1.[O-]CCc1ccccn1.[Ti+4] | – | – | 75.3 µM | – | > 100 µM | 94.8 µM | 38 µM | – | GI50 [2]: 30.4 µM; GI50 [4]: 36.2 µM; GI50 [5]: 15.6 µM; GI50 [6]: 25.4 µM

Row | SMILES | TGI [1] | TGI [3] | TGI [6] | TGI [8] | TGI [2] | TGI [4] | TGI [5] | TGI [9] | also measured
23 | C(=C\c1ccc2ccccc2c1Nc1ccccc1)/c1ccccc1 | – | > 100 µM | > 100 µM | > 91.8 µM | > 100 µM | > 88.1 µM | > 100 µM | 40.6 µM | –
24 | O=C1N(c2ccc(Cl)cc2)C(=O)C2(SC=NN2Cc2ccccc2)N1c1ccc(Cl)cc1 (stereo unspecified) | – | > 100 µM | > 100 µM | > 100 µM | > 100 µM | > 100 µM | > 100 µM | 94.4 µM | TGI [7]: > 100 µM
25 | COc1oc(C2C/C(=C/C(C)=C/C(C)=C/C(C)=C/c3ccc([N+](=O)[O-])cc3)CO2)c(C)c(=O)c1C (stereo unspecified) | 23.9 µM | – | – | – | – | – | – | – | –
26 | CN(C)NC(=O)NC12CC3CC(CC(C3)C1)C2 | – | – | > 100 µM | > 100 µM | – | – | > 100 µM | > 100 µM | –
27 | Nc1nc(N)c(CCCCc2ccc([N+](=O)[O-])cc2)c(N)n1 | > 100 µM | > 100 µM | > 100 µM | > 100 µM | > 100 µM | > 100 µM | > 100 µM | > 100 µM | –
28 | O=C(Nc1c[nH]c(=O)[nH]c1=O)Oc1ccccc1 | > 100 µM | – | – | – | – | – | – | – | –
29 | COc1cc2c3c(c4ccc(O)cc4c2cc1OC)[C@@H](O)[C@@H]1CCCN1C3 | 0.145 µM | – | – | – | – | – | – | – | –
30 | N#Cc1sc2nc3c(c(-c4ccccc4)c2c1N)CCCC3 | – | – | > 100 µM | > 100 µM | – | – | > 100 µM | 92.2 µM | –
31 | CCNC(=O)O/N=C1\CCC2[C@@H]3CC=C4C[C@@H](OC(=O)NCC)CC[C@]4(C)C3CC[C@]12C (stereo partly specified) | – | 1.82 µM | 4.79 µM | – | > 100 µM | 6.73 µM | 2.2 µM | 0.911 µM | TGI [7]: 17.3 µM
32 | Nc1ncc(CN2CCCC2)c(-c2ccccc2O)n1 | – | > 750 µM | > 750 µM | – | > 750 µM | > 750 µM | > 750 µM | > 750 µM | –
33 | COc1cc2c3c(c4cc(OC)c(OC)cc4c2cc1OC)CN1CCC[C@H]1C3 | 6.57 µM and 0.776 µM | – | – | – | – | – | – | – | GI50 [1]: 0.0817 µM and < 0.0129 µM
34 | CC(=O)O[C@H]1CSC[C@@H](OC(C)=O)C1[N+](=O)[O-] (stereo partly specified) | – | > 100 µM | > 100 µM | > 100 µM | – | > 100 µM | 34 µM | – | TGI [7]: > 100 µM
35 | NC1(C(=O)O)CCC(C(=O)O)CC1 (stereo unspecified) | – | > 100 µM | > 100 µM | > 100 µM | > 100 µM | > 100 µM | > 100 µM | > 100 µM | TGI [7]: > 100 µM
36 | CSCSCC(CO)NC(=O)/C=C/c1c(C)[nH]c(=O)[nH]c1=O (stereo unspecified) | – | > 100 µM | > 100 µM | > 100 µM | > 100 µM | > 100 µM | > 100 µM | – | –
37 | CC(=O)OC1(C(C)=O)CC2(c3ccccc3)OC1(c1ccccc1)c1ccccc12 (stereo unspecified) | – | 12.5 µM | 80.4 µM | > 100 µM | > 100 µM | > 100 µM | > 100 µM | 33.3 µM | TGI [7]: > 100 µM
38 | CC1=C(C(=S)Nc2ccc(Cl)c(C(=O)OC(C)C)c2)SCCO1 | 39.2 µM | – | – | – | – | – | – | – | –
39 | C=C1C(C)C2C(Cc3ccccc3)NC(=O)C23C(OC(C)=O)C=CC(C)(O)C(=O)C(C)C/C=C/C3C1O (stereo unspecified) | 21.4 µM and > 162 µM | 65.6 µM and > 500 µM | 93.4 µM and > 500 µM | 1.55 µM | – | 1.09 µM and 0.117 µM | 96.4 µM | 28.5 µM | GI50 [3]: 11.1 µM; GI50 [4]: 0.0404 µM and 0.05 µM; GI50 [6]: 57.3 µM; GI50 [1]: 1.75 µM
40 | CCOC(=O)C(Oc1ccc(OC)c2c1C(=O)CCC2)c1ccccc1 (stereo unspecified) | – | > 100 µM | > 100 µM | > 100 µM | > 100 µM | – | > 100 µM | > 100 µM | –
41 | CN(C(=O)C12C3C4C1C1C2C3C41C#N)C(C)(C)C (stereo unspecified) | – | > 100 µM | > 100 µM | > 100 µM | > 100 µM | – | > 100 µM | – | TGI [7]: > 100 µM
42 | COc1cc2c(c3oc4c(O)cccc4c(=O)c13)CC(C(C)(O)CCl)O2 (stereo unspecified) | 2.45 µM | – | – | – | – | – | – | – | –
43 | CC1=C(\C=C/C(C)=C/C=C/C(C)=C/C=C/C=C(C)\C=C\C=C(C)/C=C/C2=C(C)CCCC2(C)C)C(C)(C)CCC1 | > 100 µM | – | – | – | – | – | – | – | –
